Source: publication PMC5562778 (Archives of Toxicology, 2017)
Like-named read-outs stand apart in the source and are kept apart here.

Columns and labels:
Chinese liver S9 = assay: Oxidation of 1′-hydroxyestragole by Chinese liver S9 (NAD+, GSH trapping); type: in vitro ADME, human
Experimental: (§1) Mixed gender Chinese or Caucasian liver S9 was incubated with 1′-hydroxyestragole in the presence of NAD^+ and GSH, the latter added to trap the transient 1′-oxoestragole. Formation of the 1′-oxoestragole adducts with GSH forming GS-1′-oxoestragole reflects the formation of 1′-oxoestragole (Punt et al. [2009]). […] The reactions were terminated after 10 min by the addition of 25 μL ice-cold acetonitrile. Blank incubations were performed without cofactor NAD^+. All incubations were performed in triplicate.
(§2) Secondary metabolism of 1′-hydroxyestragole includes glucuronidation, oxidation, and sulfation. The gradient of analysis of the metabolites of 1′-hydroxyestragole can be found in supporting materials 2. Table S1 can be used to track more detailed information.
(§3) Identification of the GS-1′-oxoestragole which reflects the formation of 1′-oxoestragole was done by comparing the UV spectra and retention time of the formed GSH adduct to those of GS-1′-oxoestragole identified as described previously (Punt et al. [2009]). Quantification of the GSH conjugate of 1′-oxoestragole was achieved by comparing the peak area to the calibration curve of GS-1′-oxoestragole at a wavelength of 280 nm prepared as described previously by Punt et al. ([2009], [2016]). Briefly, the calibration curve of GS-1′-oxoestragole was prepared by incubating 40 μM 1′-oxoestragole with a range of GSH concentrations. The reactions were incubated for 4 h after which maximal formation of GS-1′-oxoestragole was previously shown to be reached (Punt et al. [2009]).
(§4) Mixed gender Chinese or Caucasian liver S9 was incubated with 1'-hydroxyestragole in the presence of NAD^+ and GSH, the latter added to trap the transient 1'-oxoestragole. Formation of the 1'-oxoestragole adducts with GSH forming GS-1'-oxoestragole reflects the formation of 1'-oxoestragole (Punt et al. 2009). […] The mixtures were pre-incubated for 1 min at 37 °C, after which the reactions were started by adding the substrate 1'-hydroxyestragole at concentrations ranging from 15 to 1000 μM added from 100 times concentrated stock solutions in DMSO. The reactions were terminated after 10 min by the addition of 25 μl ice-cold acetonitrile. Under these conditions, the formation of the GSH adduct of 1'-oxoestragole was linear with time and cytosolic protein concentration (Punt et al. 2009). Blank incubations were performed without cofactor NAD^+. All incubations were performed in triplicate.
(§5) The gradient for analysis of the metabolites contains a mixture of acetonitrile and 0.1 % TFA in ultrapure water with 0.6 ml/min flow rate.

Caucasian liver S9 = assay: Oxidation of 1′-hydroxyestragole by Caucasian liver S9 (NAD+, GSH trapping); type: in vitro ADME, human
Experimental: as §1, §2, §3, §4, §5

[1] = test system: Caucasian liver microsomes; assay: Microsomal conversion of estragole by Caucasian liver microsomes (NADPH); type: in vitro ADME, human; conditions: for Catalytic efficiency (scaled V max / K m) / Scaled V max: formation from estragole, Caucasian; for Catalytic efficiency (scaled V max / K m): scaled to liver; for Scaled V max: scaled with microsomal protein yield 35 mg/(g tissue); for Catalytic efficiency (V max/K m × 1000) / K m / V max: formation of the metabolite from estragole, Caucasian liver microsomes; for K m / V max: average ± SEM
Experimental: (§6) The incubation mixtures contained (final concentrations) 3 mM NADPH and 1 mg/mL microsomal protein in 0.2 M Tris–HCl (pH 7.4). Incubations were performed for 10 min at substrate concentrations ranging from 25 to 1000 μM, after which the reaction was terminated by adding 25 μL ice-cold acetonitrile. Blank incubations were performed in the absence of the cofactor NADPH. All incubations were performed in triplicate. In the supporting materials 2, detailed information can be found (Table S1 can be used to keep track of detailed information).
Before UPLC analysis, all samples were centrifuged for 5 min at 16,000 g to precipitate microsomal proteins. Supernatant of each sample was analyzed on UPLC using a BEH C18 (1.7 μm, 2.1 × 50 mm) column with a guard column and a diode array detector (Acquity, Waters). […] Table S1 can be used to keep track of detailed information. […] 3′-Hydroxyanethole was quantified by comparison of the peak areas of the metabolite in the chromatograms obtained at a wavelength of 206 nm to the calibration curve of the synthesized reference compound (Agharahimi and LeBel [1995]; Drinkwater et al. [1976]; Iyer et al. [2003]; Luo et al. [1992]).
(§7) The apparent maximum velocity (V max) and the apparent Michaelis–Menten constant (K m) were determined by fitting the data to this equation using GraphPad Prism version 5.0 (GraphPad software, San Diego California USA).
(§8) The incubation mixtures contained (final concentrations) 3 mM NADPH and 1 mg/ml microsomal protein in 0.2 M Tris-HCl (pH 7.4). […] Incubations were performed for 10 min at substrate concentrations ranging from 25 to 1000 μM, after which the reaction was terminated by adding 25 μl ice-cold acetonitrile. […] Blank incubations were performed in the absence of the cofactor NADPH. All incubations were performed in triplicate.
The flow rate was 0.6 ml/min and the gradient started with 100 % ultrapure water. After 1 min, the amount of acetonitrile was increased to 10 % and kept at that level for 1 min, after which the percentage of acetonitrile was increased to 35 % in 2.5 min and then increased to 100 % over 0.5 minute and kept at 100 % acetonitrile for another 1 min, and finally back to the starting conditions.

Chinese liver microsomes = assay: Microsomal conversion of estragole by Chinese liver microsomes (NADPH); conditions: for Catalytic efficiency (scaled V max / K m) / Scaled V max: formation from estragole, Chinese; for Scaled V max: scaled with microsomal protein yield 35 mg/(g tissue); for Catalytic efficiency (V max/K m × 1000) / K m / V max: formation of the metabolite from estragole, Chinese liver microsomes; for K m / V max: average ± SEM; for Catalytic efficiency for formation of the metabolite, lower in Chinese than in Caucasian samples / V max for formation of the metabolite, lower in Chinese than in Caucasian samples: in vitro, liver microsomes
Experimental: as §6
Before UPLC analysis, all samples were centrifuged for 5 min at 16,000 g to precipitate microsomal proteins. Supernatant of each sample was analyzed on UPLC using a BEH C18 (1.7 μm, 2.1 × 50 mm) column with a guard column and a diode array detector (Acquity, Waters). […] Table S1 can be used to keep track of detailed information.
as §7, §8
The flow rate was 0.6 ml/min and the gradient started with 100 % ultrapure water.

[2] = ref Barter et al. [2013], cited from earlier work
[3] = PBK prediction, ref Barter et al. [2013], cited from earlier work
[4] = formation from 1′-hydroxyestragole (oxidation), Chinese liver S9
[5] = formation from 1′-hydroxyestragole (oxidation), Chinese liver S9, listed as 1′-oxoestragole
[6] = formation from 1′-hydroxyestragole (oxidation), Caucasian liver S9
[7] = formation from 1′-hydroxyestragole (oxidation), Caucasian liver S9, listed as 1′-oxoestragole

Structure (SMILES) | Catalytic efficiency (scaled V max / K m) [1] | Scaled V max [1] | Catalytic efficiency (V max/K m × 1000) [1] | K m [1] | V max [1] | Catalytic efficiency (scaled V max / K m) (Chinese liver microsomes; scaled to liver) | Scaled V max (Chinese liver microsomes) | Catalytic efficiency (V max/K m × 1000) (Chinese liver microsomes) | K m (Chinese liver microsomes) | V max (Chinese liver microsomes) | Catalytic efficiency for formation of the metabolite, lower in Chinese than in Caucasian samples (Chinese liver microsomes; conversion of estragole) | V max for formation of the metabolite, lower in Chinese than in Caucasian samples (Chinese liver microsomes; conversion of estragole) | also measured
C=CC(=O)c1ccc(OC)cc1 [1′-Oxoestragole] | – | – | – | – | – | – | – | – | – | – | – | – | Catalytic efficiency (V max/K m × 1000) (Chinese liver S9; [4]): 4.5 µL/min/mg microsomal or S9 protein; K m (Chinese liver S9; [4]): 403 ± 137 µM; V max (Chinese liver S9; [4]): 1.82 ± 0.28 nmol /min/mg microsomal or S9 protein; K m (Chinese liver S9; [5]): 403 µM; V max (Chinese liver S9; [5]): 1.82 nmol /min/mg microsomal or S9; Catalytic efficiencies for formation of 1′-oxoestragole, Chinese versus Caucasian (Chinese liver S9; in vitro, oxidation of 1′-hydroxyestragole, liver S9): similar; Scaled V max (Chinese liver S9; oxidation of 1′-hydroxyestragole, Chinese, S9 protein yield 143 mg/(g tissue)): 15.6 µmol/h/g liver; Catalytic efficiency (scaled V max / K m) (Chinese liver S9; oxidation of 1′-hydroxyestragole, Chinese, scaled to liver): 38.7 µL/h/g liver; Scaled catalytic efficiencies for formation of 1′-oxoestragole, Chinese versus Caucasian (Chinese liver S9; scaled to liver, oxidation of 1′-hydroxyestragole): similar; Catalytic efficiency (V max/K m × 1000) (Caucasian liver S9; [6]): 5.4 µL/min/mg microsomal or S9 protein; K m (Caucasian liver S9; [6]): 521 ± 265 µM; V max (Caucasian liver S9; [6]): 2.8 ± 0.70 nmol /min/mg microsomal or S9 protein; K m (Caucasian liver S9; [7]): 521 µM; V max (Caucasian liver S9; [7]): 2.8 nmol /min/mg microsomal or S9; Scaled V max (Caucasian liver S9; oxidation of 1′-hydroxyestragole, Caucasian, S9 protein yield 143 mg/(g tissue)): 24.0 µmol/h/g liver; Catalytic efficiency (scaled V max / K m) (Caucasian liver S9; oxidation of 1′-hydroxyestragole, Caucasian, scaled to liver): 46.1 µL/h/g liver
COc1ccc(/C=C/CO)cc1 [3′-Hydroxyanethole] | 4.8 µL/h/g liver | 2.1 µmol/h/g liver | 2.3 µL/min/mg microsomal or S9 protein | 429 ± 80 µM | 0.99 ± 0.08 nmol /min/mg microsomal or S9 protein | 1.5 µL/h/g liver | 0.7 µmol/h/g liver | 0.71 µL/min/mg microsomal or S9 protein | 450 ± 219 µM | 0.32 ± 0.07 nmol /min/mg microsomal or S9 protein | 3.2 fold | 3.1 fold | –
C=CCc1ccc(O)cc1 [4-Allylphenol] | 5.0 µL/h/g liver | 1.6 µmol/h/g liver | 2.4 µL/min/mg microsomal or S9 protein | 308 ± 71 µM | 0.74 ± 0.07 nmol /min/mg microsomal or S9 protein | 2.7 µL/h/g liver | 0.3 µmol/h/g liver | 1.3 µL/min/mg microsomal or S9 protein | 115 ± 24 µM | 0.15 ± 0.01 nmol /min/mg microsomal or S9 protein | 1.8 fold | 5.0 fold | –
COc1ccc(CC2CO2)cc1 (stereo not drawn) [Estragole-2′,3′-oxide] | 26.6 µL/h/g liver | 3.9 µmol/h/g liver | 12.7 µL/min/mg microsomal or S9 protein | 146 ± 15 µM | 1.85 ± 0.06 nmol /min/mg microsomal or S9 protein | 5.5 µL/h/g liver | 0.9 µmol/h/g liver | 2.6 µL/min/mg microsomal or S9 protein | 161 ± 17 µM | 0.42 ± 0.01 nmol /min/mg microsomal or S9 protein | 4.9 fold | 4.4 fold | V max, lower in Chinese than in Caucasian liver incubations (Chinese liver microsomes; scaled kinetic constants (Table 3), conversion of estragole): fourfold; Scaled catalytic efficiency, lower for Chinese than Caucasian liver microsomes (Chinese liver microsomes; scaled to liver, conversion of estragole): fivefold
Cc1nnc2n1-c1ccc(Cl)cc1C(c1ccccc1)=NC2 [alprazolam] | – | – | – | – | – | – | – | – | – | – | – | – | Experimentally observed clearance, lower in Chinese individuals than in Caucasian volunteers ([2]; intravenous): 20%; Experimentally observed clearance, lower in Chinese individuals than in Caucasian volunteers ([2]; oral): 21%; Predicted clearance, lower in Chinese than in Caucasian subjects ([3]; intravenous): 21%; Predicted clearance, lower in Chinese than in Caucasian subjects ([3]; oral): 22%
Cc1ncc2n1-c1ccc(Cl)cc1C(c1ccccc1F)=NC2 [midazolam] | – | – | – | – | – | – | – | – | – | – | – | – | Experimentally observed clearance, lower in Chinese individuals than in Caucasian volunteers ([2]; intravenous): 19%; Experimentally observed clearance, lower in Chinese individuals than in Caucasian volunteers ([2]; oral): 62%; Predicted clearance, lower in Chinese than in Caucasian subjects ([3]; intravenous): 24%; Predicted clearance, lower in Chinese than in Caucasian subjects ([3]; oral): 17%
COc1ccc2[nH]c([S+]([O-])Cc3ncc(C)c(OC)c3C)nc2c1 (stereo not drawn) [omeprazole] | – | – | – | – | – | – | – | – | – | – | – | – | Experimentally observed clearance, lower in Chinese individuals than in Caucasian volunteers ([2]; route not stated): 75%; Predicted clearance, lower in Chinese than in Caucasian subjects ([3]; route not stated): 51%
CCCCNC(=O)NS(=O)(=O)c1ccc(C)cc1 [tolbutamide] | – | – | – | – | – | – | – | – | – | – | – | – | Experimentally observed clearance, lower in Chinese individuals than in Caucasian volunteers ([2]; route not stated): 2%; Predicted clearance, lower in Chinese than in Caucasian subjects ([3]; route not stated): 25%
